Test system: Red imported fire ant (Solenopsis invicta)
Assay: Fire ant repellency, honey plates near mounds (Example 6)
Type: in vivo
Conditions: separate trial; about 100 mg per plate; within 4 feet of mounds
From the text: Formulation A was poured into a plastic spray bottle and was sprayed onto 20 eight inch paper plates, one squeeze of the pump trigger per plate. […] Ten treated plates were placed randomly on the ground on a farm in Sparks, Ga., USA and ten control (untreated) plates were placed on the ground about 3 feet from the treated plates. Ten treated plates were placed about 4 feet from active Red imported fire ant mounds and ten control plates were placed near the same mounds no closer than 3 feet from the treated plates. Each plate received approximately 15 mL of an aqueous 25% honey solution.
Fifty percent of the control plates had active fire ant feeding within 15 minutes and 100% of the control plates had active fire ant feeding within 30 minutes.

COC(=O)c1ccccc1N [methyl anthranilate]
deterrence of fire ant feeding: did not deter fire ants from feeding

Reference: US10178865B2, “Insect repellent” (priority 2013, dated 2019)
